Reference: patent US11401278B2, “Macrocyclic indole derivatives” (The Broad Institute, Inc., priority 2017, dated 2022)
Values joined by “and” are separate entries in the source; they are usually repeats but may differ in a detail not shown here. Identical values can stand only once. Like-named read-outs stand apart in the source and are kept apart here.

How the values were obtained:
[1] = biological target: BCL-2 (Homo sapiens (Human), UniProt P10415); assay: Protein-protein interaction assay BCL-2/Bad BH3 peptide (BCL-2 assay, TR-FRET); assay type: binding; conditions: His-BCL-2 / Bad BH3 peptide, median
Sequence of BCL-2 (P10415 other isoform, or with tags, fused parts or gaps): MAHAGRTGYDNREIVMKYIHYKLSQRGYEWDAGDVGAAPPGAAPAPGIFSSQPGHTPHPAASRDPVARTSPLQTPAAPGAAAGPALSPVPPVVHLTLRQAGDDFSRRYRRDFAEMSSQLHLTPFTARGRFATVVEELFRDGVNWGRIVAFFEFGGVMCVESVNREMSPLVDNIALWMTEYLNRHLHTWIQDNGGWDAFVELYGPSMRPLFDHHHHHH
Procedure, shortened: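 His-BCL-2 (1-211, E. coli) at 1 nM preincubated 10 min at 22 °C with compound (11 concentrations, 0.1 nM-20 μM, duplicates), then 1 nM biotinylated Bad BH3 peptide added. After 1 h at 22 °C plus overnight at 4 °C, TR-FRET 665/620 ratio normalised to DMSO and no-BCL-2 controls, IC50 from 4-parameter fit.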

[2] = tested on: SUDHL5; assay: Induction of caspase-3/7 activity (Assay 4), SUDHL5; assay type: cell-based; conditions: caspase-3/7 induction, median
Procedure, shortened: (§1)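 Caspase-3/7 activity measured by Caspase-Glo 3/7 luminescence in DLBCL cells after 3 h compound treatment at 37 °C. Medium-only background subtracted. EC50 fitted with C0 fixed at 1 and top set to the reference compound's plateau/max induction.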

[3] = tested on: SUDHL10; assay: Induction of caspase-3/7 activity (Assay 4), SUDHL10; assay type: cell-based; conditions: caspase-3/7 induction, median
Procedure, shortened: as §1

[4] = tested on: SUDHL5; assay: Antiproliferation assay (Assay 7), SUDHL5; assay type: cell-based; conditions: CellTiter-Glo, median, read-out: Antiproli SUDHL5 [M] (median) IC50
Procedure, shortened: (§2)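 Cells were exposed to compound for 72 hours at 37° C. Viability was measured by CellTiter-Glo luminescence. A day 0 plate read at the start served as the time-zero reference.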

[5] = tested on: AMO-1; assay: Antiproliferation assay (Assay 7), AMO-1; assay type: cell-based; conditions: CellTiter-Glo, several values per example, read-out: Antiproli AMO-1 [M] IC50
Procedure, shortened: as §2

[6] = tested on: SUDHL5; assay: Induction of cytotoxicity (Assay 6), SUDHL5; conditions: read-out: Cytotox SUDHL5 [M] (median) IC50, CellTiter-Glo, 5 hours, SUDHL5
[7] = tested on: SUDHL10; assay: Induction of cytotoxicity (Assay 6), SUDHL10; conditions: read-out: Cytotox SUDHL10 [M] (median) IC50, CellTiter-Glo, 5 hours, SUDHL10

IC50 [1] [nM]	EC50 ([2]; Homo sapiens, SU-DHL-5, 3 h) [nM]	EC50 ([3]; Homo sapiens, SU-DHL10, 3 h) [nM]	IC50 ([4]; Homo sapiens, SU-DHL-5, 72 h) [M]	EC50 ([2]; 3 hours) [nM]	EC50 ([3]; 3 hours) [nM]	IC50 ([4]; 72 hours) [M]	SMILES	IC50 ([5]; Homo sapiens, AMO1, 72 h) [M]	IC50 ([6]; Homo sapiens, SU-DHL-5, 5 h) [M]	IC50 ([7]; Homo sapiens, SU-DHL10, 5 h) [M]	IC50 ([5]; 72 hours)	IC50 [6] [M]	IC50 [7] [M]
> 20000	13000	21000	4.7e-06	–	–	–	CCc1c2c(nn1C)CNS(=O)(=O)CCCn1c(C(=O)O)c(CCCOc3cccc4ccccc34)c3cccc-2c31 (racemic) [Example 17, (rac)-12-Ethyl-11-methyl-1-(3-(naphthalen-1-yloxy)propyl)-4,5,6,8,9,11-hexahydropyrazolo[3′,4′:4,5][1,2,8]thiadiazacycloundecino[6,7,8-hi]indole-2-carboxylic acid 7,7-dioxide]	> 3.3e-05	9.3e-06	1.6e-05	–	–	–
19000	–	–	–	40	42	7e-08	CCc1c2c(nn1C)C(CCC1CCOCC1)N(C)S(=O)(=O)CCCn1c(C(=O)O)c(CCCOc3cccc4cc(F)ccc34)c3ccc(Cl)c-2c31 (single isomer, unassigned; enantiomer 3) [Example 63, (+)-4-chloro-3-ethyl-7-{3-[(6-fluoronaphthalen-1-yl)oxy]propyl}-2,14-dimethyl-15-[2-(oxan-4-yl)ethyl]-13,13-dioxo-10,11,12,13,14,15-hexahydro-2H-13lambda^6-pyrazolo[3′,4′:4,5][1,2,8]thiadiazacycloundecino[6,7,8-hi]indole-8-carboxylic acid (Enantiomer 3)]	–	–	–	4e-08 M and 4.5e-08 M and 3.3e-08 M	4.5e-08	8.6e-08
